Numbering of substitutions follows the chain as printed. Several values for one entry are separate records, joined by “and”; a condition that tells them apart may be missing. Equal entries are not always repeated. Where two headings read alike, the source gives them in different places.
Experiments:
PfCRT [1] = test: Potential co-substrates tested for influx of VF-6 via PfCRT into the oocyte; assay type: cell-based, Plasmodium falciparum; set-up: key: X: Compounds that have been tested as potential co-substrates but are not required for influx of VF-6 via PfCRT into the oocyte
PfCRT [2] = test: Influx of VF-6 via PfCRT into the oocyte, solutes tested as potential co-substrates; assay type: cell-based, Plasmodium falciparum; set-up: key: X: Compounds that have been tested as potential co-substrates but are not required for influx of VF-6 via PfCRT into the oocyte; details: X marks the solute
PfCRT [3] = test: Test of solutes as potential co-substrates for influx of VF-6 via PfCRT into the oocyte; assay type: cell-based, Plasmodium falciparum; set-up: key: X: Compounds that have been tested as potential co-substrates but are not required for influx of VF-6 via PfCRT into the oocyte; details: X = tested
PfCRT^3D7 [4] = molecular target: T1, PfCRT^3D7 (Plasmodium falciparum, UniProt Q8IBZ9); test: cell-based; assay type: cell-based
T1 sequence (Q8IBZ9 59-398): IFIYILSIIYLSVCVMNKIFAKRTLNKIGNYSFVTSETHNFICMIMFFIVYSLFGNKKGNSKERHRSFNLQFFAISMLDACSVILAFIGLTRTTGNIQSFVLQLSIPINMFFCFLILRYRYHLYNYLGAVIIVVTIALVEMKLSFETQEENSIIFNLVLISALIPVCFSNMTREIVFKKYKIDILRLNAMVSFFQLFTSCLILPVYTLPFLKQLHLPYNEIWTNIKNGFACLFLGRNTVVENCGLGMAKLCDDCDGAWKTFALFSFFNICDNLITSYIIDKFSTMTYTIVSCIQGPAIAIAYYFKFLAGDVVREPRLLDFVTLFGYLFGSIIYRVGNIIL
In short: (§1)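 ND96, pH 5.5, 1.5 h, 27.5 °C; uptake direction acidic outside → oocyte cytosol, mimicking efflux from digestive vacuole. Ice-cold wash stop, 10% SDS lysis, scintillation counting. Ten oocytes/treatment, ≥4 independent experiments.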

PfCRT^Ecu1110 = PfCRT^Ecu1110 (Plasmodium falciparum, UniProt Q9N623, A220S/I356L/K76T/N326D); test: [3H]CQ uptake into Xenopus oocytes, cis-inhibition by unlabelled solute; assay type: cell-based; details: for Uptake of [3H]CQ (% PfCRTEcu1110 control), cis-inhibition / Uptake of [3H]CQ (% PfCRTDd2 control), cis-inhibition, PfCRTEcu1110: total [3H]CQ transport; for Uptake of [3H]CQ (% PfCRTEcu1110 control), cis-inhibition: normalised to the oocyte type control; for [3H]CQ transport (% PfCRTEcu1110 control), cis-inhibition, PfCRTEcu1110: PfCRT-mediated component (background subtracted), sheet title says normalised to PfCRTDd2 control; for [3H]CQ transport (% PfCRTEcu1110 control), cis-inhibition, PfCRTEcu1110 / Uptake of [3H]CQ (% PfCRTDd2 control), cis-inhibition, PfCRTEcu1110: mean ± SEM
Sequence of PfCRT^Ecu1110 (Q9N623 whole entry A220S/I356L/K76T/N326D): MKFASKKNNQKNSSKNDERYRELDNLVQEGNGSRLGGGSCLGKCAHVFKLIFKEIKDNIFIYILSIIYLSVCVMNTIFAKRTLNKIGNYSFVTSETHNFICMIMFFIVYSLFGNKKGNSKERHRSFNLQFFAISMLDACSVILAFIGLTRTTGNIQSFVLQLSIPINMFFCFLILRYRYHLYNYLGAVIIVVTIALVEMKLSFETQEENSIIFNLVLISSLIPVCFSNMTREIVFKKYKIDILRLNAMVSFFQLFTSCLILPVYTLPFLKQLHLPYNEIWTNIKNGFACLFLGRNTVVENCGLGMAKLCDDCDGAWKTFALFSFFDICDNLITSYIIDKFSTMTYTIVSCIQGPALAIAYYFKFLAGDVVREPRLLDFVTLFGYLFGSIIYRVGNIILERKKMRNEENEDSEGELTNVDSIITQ
In short: as §1

PfCRT^Dd2 = PfCRT^Dd2 (Plasmodium falciparum, UniProt Q9N623, A220S/I356T/K76T/M74I/N326S/N75E/Q271E/R371I); test: as above; assay type: cell-based; details: for PfCRT-mediated [3H]CQ transport, cis-inhibition (% PfCRTDd2 control): PfCRTDd2 oocytes, background [3H]CQ accumulation subtracted, normalised to oocyte type control; for Uptake of [3H]CQ (% PfCRTDd2 control), cis-inhibition, PfCRTDd2: total [3H]CQ transport, mean ± SEM
In short: as §1

non-expressing oocytes [5] = test: cells; assay type: cell-based, Xenopus laevis; details: for inhibition at 500 µM / inhibition at 1000 µM / inhibition at 2000 µM: Xenopus laevis, Oocyte
In short: as §1

non-expressing oocytes [6] = assay type: cell-based, Xenopus laevis; details: SEM
In short: (§2)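 Oocytes (ten per treatment, ≥4 independent frogs/days) were preloaded by injecting VF-6 in 25 nL ND96 at pH 5.0, 5.5, 6.0 or 7.0, or Na^+-free choline buffer, then uptake run 1.5 h, 27.5 °C, ND96 pH 5.5 by default. Internal concentrations assumed ~400 nL oocyte volume.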

PfNT1 = molecular target: T2, PfNT1 (Plasmodium falciparum, UniProt Q8IDM6); test: cell-based; assay type: cell-based; details: SEM
T2 construct: expressed in transfected cells; host or cells: Xenopus laevis oocytes (stage V-VI), cRNA-injected
T2 sequence (Q8IDM6 whole entry): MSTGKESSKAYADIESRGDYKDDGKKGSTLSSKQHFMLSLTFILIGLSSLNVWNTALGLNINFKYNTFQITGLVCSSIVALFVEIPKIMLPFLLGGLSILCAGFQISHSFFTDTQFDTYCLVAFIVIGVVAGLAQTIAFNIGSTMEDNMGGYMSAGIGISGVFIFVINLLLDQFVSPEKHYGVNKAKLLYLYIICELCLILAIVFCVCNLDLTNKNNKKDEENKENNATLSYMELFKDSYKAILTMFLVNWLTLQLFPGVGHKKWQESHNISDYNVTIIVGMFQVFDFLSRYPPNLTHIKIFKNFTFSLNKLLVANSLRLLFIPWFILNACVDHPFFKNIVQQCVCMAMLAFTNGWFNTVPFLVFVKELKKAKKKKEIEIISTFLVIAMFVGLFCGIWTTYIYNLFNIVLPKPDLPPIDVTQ
In short: as §2

[7] = molecular target: T3, PfCRT^Dd2 in C4^Dd2 parasites (Plasmodium falciparum, UniProt Q8IBZ9, A220S/I356T/K76T/M74I/N326S/N75E/Q271E/R371I); test: P. falciparum H+-efflux assay (rate of DV alkalinisation after concanamycin A); assay type: cell-based; details: C4Dd2; test solute 10 μM
T3 construct: PfCRT also functions as a peptide transporter within its native environment of the DV membrane; expressed in transfected cells; host or cells: P. falciparum pfcrt transfectant line C4^Dd2 (saponin-isolated trophozoites)
T3 sequence (Q8IBZ9 1-424 M74I/N75E/K76T/A220S/Q271E/N326S/I356T/R371I): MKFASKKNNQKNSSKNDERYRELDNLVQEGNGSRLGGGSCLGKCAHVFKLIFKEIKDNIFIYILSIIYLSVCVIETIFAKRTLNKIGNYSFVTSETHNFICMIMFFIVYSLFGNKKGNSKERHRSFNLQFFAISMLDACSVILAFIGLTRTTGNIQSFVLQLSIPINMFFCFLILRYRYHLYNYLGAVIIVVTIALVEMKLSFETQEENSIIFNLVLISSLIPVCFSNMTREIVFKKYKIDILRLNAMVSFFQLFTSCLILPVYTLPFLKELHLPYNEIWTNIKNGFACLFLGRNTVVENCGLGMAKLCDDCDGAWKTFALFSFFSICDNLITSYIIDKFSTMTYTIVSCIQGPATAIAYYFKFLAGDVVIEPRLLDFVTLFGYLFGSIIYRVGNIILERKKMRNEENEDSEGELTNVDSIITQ

[8] = molecular target: T4, PfCRT^3D7 in C2^GC03 parasites (Plasmodium falciparum, UniProt Q8IBZ9); test: as above; assay type: cell-based; details: C2GC03; test solute 10 μM
T4 construct: PfCRT also functions as a peptide transporter within its native environment of the DV membrane; expressed in transfected cells; host or cells: P. falciparum pfcrt transfectant line C2^GC03 (saponin-isolated trophozoites)
T4 sequence (Q8IBZ9 1-424): T3 sequence (Q8IBZ9 1-424 M74I/N75E/K76T/A220S/Q271E/N326S/I356T/R371I) with I74M, E75N, T76K, S220A, E271Q, S326N, T356I, I371R

PfCRT^3D7 [9] = molecular target: T1, PfCRT^3D7; test: cell-based; assay type: cell-based; details: SEM
In short: as §2

[10] = read-out: Uptake of [3H]CQ (% PfCRTDd2 control), cis-inhibition, PfCRT3D7, SEM
[11] = read-out: PfCRT-mediated [3H]CQ transport, cis-inhibition (% PfCRTEcu1110 control)
[12] = read-out: Uptake of [3H]CQ (% PfCRTDd2 control), cis-inhibition, PfCRTEcu1110, SEM
[13] = read-out: Uptake of [3H]CQ (% PfCRTEcu1110 control), cis-inhibition
[14] = read-out: [3H]CQ transport (% PfCRTEcu1110 control), cis-inhibition, PfCRTEcu1110, SEM
[15] = read-out: PfCRT-mediated [3H]CQ transport, cis-inhibition (% PfCRTDd2 control)
[16] = read-out: Uptake of [3H]CQ (% PfCRTDd2 control), cis-inhibition, non-expressing oocytes, SEM
[17] = read-out: Uptake of [3H]CQ (% non-expressing oocyte control), cis-inhibition

NCC(=O)O [L-glycine]
Tested as potential co-substrate but not required for influx of VF-6 via PfCRT into the oocyte (PfCRT [1]): X | Compounds that have been tested as potential co-substrates but are not required for influx of VF-6 via PfCRT into the oocyte (PfCRT [2]): X | Tested as potential co-substrate but not required for influx of VF-6 via PfCRT into the oocyte (PfCRT [3]): X | Uptake of [3H]CQ (% PfCRT3D7 control), cis-inhibition (PfCRT^3D7 [4]): 100 ± 3.6 % PfCRT3D7 control and 100 ± 4.8 % PfCRT3D7 control | Uptake of [3H]CQ (% PfCRTDd2 control), cis-inhibition, PfCRT3D7 (PfCRT^3D7 [4]; SEM): 3.6 ± 0.07 % PfCRTDd2 control and 2.1 ± 0.01 % PfCRTDd2 control and 2.9 ± 0.04 % PfCRTDd2 control | Uptake of [3H]CQ (% PfCRTEcu1110 control), cis-inhibition (PfCRT^Ecu1110; PfCRTEcu1110 oocytes, [test solute] = 0.5 mM): 95 ± 4.2 % PfCRTEcu1110 control | Uptake of [3H]CQ (% PfCRTEcu1110 control), cis-inhibition (PfCRT^Ecu1110; PfCRTEcu1110 oocytes, [test solute] = 1 mM): 100 ± 3.2 % PfCRTEcu1110 control | PfCRT-mediated [3H]CQ transport, cis-inhibition (% PfCRTEcu1110 control) (PfCRT^Ecu1110; [test solute] = 0.5 mM, PfCRTEcu1110 oocytes, background [3H]CQ accumulation subtracted, normalised to oocyte type control): 94 ± 5.1 % PfCRTEcu1110 control | [3H]CQ transport (% PfCRTEcu1110 control), cis-inhibition, PfCRTEcu1110 (PfCRT^Ecu1110; [test solute] = 0.5 mM, SEM): 28 ± 0.5 % PfCRTEcu1110 control | [3H]CQ transport (% PfCRTEcu1110 control), cis-inhibition, PfCRTEcu1110 (PfCRT^Ecu1110; [test solute] = 1 mM, SEM): 30 ± 0.5 % PfCRTEcu1110 control | [3H]CQ transport (% PfCRTEcu1110 control), cis-inhibition, PfCRTEcu1110 (PfCRT^Ecu1110; [test solute] = 2 mM, SEM): 29 ± 0.4 % PfCRTEcu1110 control | Uptake of [3H]CQ (% PfCRTDd2 control), cis-inhibition, PfCRTEcu1110 (PfCRT^Ecu1110; [test solute] = 0.5 mM, SEM): 31 ± 1.5 % PfCRTDd2 control | Uptake of [3H]CQ (% PfCRTDd2 control), cis-inhibition, PfCRTEcu1110 (PfCRT^Ecu1110; [test solute] = 1 mM, SEM): 33 ± 1.0 % PfCRTDd2 control | PfCRT-mediated [3H]CQ transport, cis-inhibition (% PfCRTDd2 control) (PfCRT^Dd2; [test solute] = 1 mM): 94 ± 3.7 % PfCRTDd2 control | PfCRT-mediated [3H]CQ transport, cis-inhibition (% PfCRTDd2 control) (PfCRT^Dd2; [test solute] = 2 mM): 93 ± 3.1 % PfCRTDd2 control | Uptake of [3H]CQ (% PfCRTDd2 control), cis-inhibition, PfCRTDd2 (PfCRT^Dd2; [test solute] = 0.5 mM, SEM): 97 ± 3.3 % PfCRTDd2 control | Uptake of [3H]CQ (% PfCRTDd2 control), cis-inhibition, PfCRTDd2 (PfCRT^Dd2; [test solute] = 2 mM, SEM): 95 ± 3.6 % PfCRTDd2 control | Uptake of [3H]CQ (% non-expressing oocyte control), cis-inhibition (non-expressing oocytes [5]): 100 ± 4.6 % non-expressing oocyte control and 98 ± 7.4 % non-expressing oocyte control and 100 ± 3.5 % non-expressing oocyte control | Uptake of [3H]CQ (% PfCRTDd2 control), cis-inhibition, non-expressing oocytes (non-expressing oocytes [5]; SEM): 3.1 ± 0.09 % PfCRTDd2 control and 2.2 ± 0.03 % PfCRTDd2 control and 2.7 ± 0.03 % PfCRTDd2 control | Uptake of [3H]CQ (% PfCRTDd2 control), trans-stimulation, non-expressing oocytes (non-expressing oocytes [6]): 2.8 ± 0.05 % PfCRTDd2 control | Uptake of [3H]CQ (% PfCRTDd2 control), trans-stimulation, PfNT1 (PfNT1): 2.9 ± 0.03 % PfCRTDd2 control

CC(C)C[C@H](NC(=O)[C@H]1O[C@@H]1C(=O)O)C(=O)NCCCCN=C(N)N [E-64]
Effect on rate of DV alkalinisation / H+ leak (in words) [7]: neither peptide exerted an effect | Effect on rate of DV alkalinisation / H+ leak (in words) [8]: caused a H^+ leak

O=C(O)[C@@H]1CCCN1 [L-proline]
Tested as potential co-substrate but not required for influx of VF-6 via PfCRT into the oocyte (PfCRT [1]): X | Compounds that have been tested as potential co-substrates but are not required for influx of VF-6 via PfCRT into the oocyte (PfCRT [2]): X | Tested as potential co-substrate but not required for influx of VF-6 via PfCRT into the oocyte (PfCRT [3]): X | inhibition at 500 µM (PfCRT^3D7 [4]; read-out: Uptake of [3H]CQ (% PfCRT3D7 control), cis-inhibition): 99 ± 6.2% | inhibition at 500 µM (PfCRT^3D7 [4]; [10]): 2.3 ± 0.01% | inhibition at 2000 µM (PfCRT^3D7 [4]; [10]): 2.6 ± 0.04% | inhibition at 500 µM (PfCRT^Ecu1110; [11]): 98 ± 4.6% | inhibition at 1000 µM (PfCRT^Ecu1110; [11]): 94 ± 3.6% | inhibition at 2000 µM (PfCRT^Ecu1110; [11]): 95 ± 2.6% | inhibition at 500 µM (PfCRT^Ecu1110; [12]): 33 ± 1.4% | inhibition at 1000 µM (PfCRT^Ecu1110; [12]): 31 ± 1.5% | inhibition at 2000 µM (PfCRT^Ecu1110; [12]): 32 ± 1.4% | inhibition at 500 µM (PfCRT^Ecu1110; [13]): 100 ± 7.7% | inhibition at 1000 µM (PfCRT^Ecu1110; [13]): 96 ± 8.1% | inhibition at 2000 µM (PfCRT^Ecu1110; [13]): 96 ± 4.3% | inhibition at 500 µM (PfCRT^Ecu1110; [14]): 30 ± 1.4% | inhibition at 1000 µM (PfCRT^Ecu1110; [14]): 28 ± 0.6% | inhibition at 2000 µM (PfCRT^Ecu1110; [14]): 29 ± 1.4% | inhibition at 500 µM (PfCRT^Dd2; [15]): 95 ± 4.2% | inhibition at 1000 µM (PfCRT^Dd2; [15]): 96 ± 3.2% | inhibition at 1000 µM (PfCRT^Dd2; read-out: Uptake of [3H]CQ (% PfCRTDd2 control), cis-inhibition, PfCRTDd2, SEM): 98 ± 4.8% | inhibition at 500 µM (non-expressing oocytes [5]; [16]): 2.8 ± 0.09% | inhibition at 1000 µM (non-expressing oocytes [5]; [16]): 3.1 ± 0.03% | inhibition at 2000 µM (non-expressing oocytes [5]; [16]): 3.4 ± 0.07% | inhibition at 500 µM (non-expressing oocytes [5]; [17]): 99 ± 3.3% | inhibition at 1000 µM (non-expressing oocytes [5]; [17]): 100 ± 3.5% | inhibition at 2000 µM (non-expressing oocytes [5]; [17]): 97 ± 5.3% | Uptake of [3H]CQ (% PfCRTDd2 control), trans-stimulation, non-expressing oocytes (non-expressing oocytes [6]): 2.6 ± 0.08 % PfCRTDd2 control | [3H]CQ transport (% PfCRT3D7 control), trans-stimulation, PfCRT3D7 (PfCRT^3D7 [9]): 0.2 ± 0.02 % PfCRT3D7 control | activity at 5000 µM (PfNT1; […], read-out: Uptake of [3H]CQ (% PfCRTDd2 control), trans-stimulation, PfNT1): 3.1 ± 0.08%

Source: PMC7413254 (Nature Communications, 2020)
